The target in the assay is T1, human MCH receptor (Homo sapiens, UniProt Q99705).
T1 construct: expressed in transfected cells
The assay can be described thus: Functional IC50 of MCH1R antagonists: cellular calcium flux (FLIPR) after MCH in recombinant HEK293 cells. Type of assay: cell-based. The note with it: calcium flux after addition of agonist (MCH), recombinant HEK293 cell line expressing the human MCH receptor. The source says: Influence on the MCH receptor in vitro; determination of functional IC50 values of MCH1R antagonists
Cloning of the cDNA for the human MCH receptor, preparation of a recombinant HEK293 cell line which expresses the human MCH receptor, and functional measurements with the recombinant cell line took place in analogy to the description by Audinot et al. (J. Biol. Chem. 276, 13554-13562, 2001). A difference from the reference was, however, the use of the plasmid pEAK8 from EDGE Biosystems (USA) for the construction of the expression vector. The host used for the transfection was a transformed HEK cell line named “PEAK Stable Cells” (likewise from EDGE Biosystems). Functional measurements of the cellular calcium flux after addition of agonist (MCH) in the presence of ligand of the invention took place with the aid of the FLIPR apparatus from Molecular Devices (USA), using protocols of the apparatus manufacturer. The compounds of the invention show a significant inhibition (>30%) of the signal induced by the agonist at a concentration of 100 μM, preferably at 10 μM, particularly preferably at 1 μM, very particularly preferably at 100 nM and even more particularly preferably at 10 nM. Besides the functional activity it is also possible to determine the affinity for the MCH1R according to Audinot et al. (Br. J. Pharmacol. 2001, 133, 371-378).

T1 sequence (Q99705 whole entry): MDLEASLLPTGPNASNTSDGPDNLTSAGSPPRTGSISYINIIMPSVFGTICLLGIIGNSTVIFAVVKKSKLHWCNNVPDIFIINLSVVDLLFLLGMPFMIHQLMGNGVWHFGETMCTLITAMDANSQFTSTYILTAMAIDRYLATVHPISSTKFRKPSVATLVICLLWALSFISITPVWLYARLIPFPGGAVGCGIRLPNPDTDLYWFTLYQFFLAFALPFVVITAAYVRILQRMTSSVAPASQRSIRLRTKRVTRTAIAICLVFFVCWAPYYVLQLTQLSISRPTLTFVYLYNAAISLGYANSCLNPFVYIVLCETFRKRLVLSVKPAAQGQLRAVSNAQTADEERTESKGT

A word on the IC50: it is the concentration at which inhibition is half-maximal. Turning to `CN1[C@@H]2CC[C@H]1C[C@@H](Oc1ccc(-n3cnc4cc(CCC5CC5)sc4c3=O)cc1)C2` [Example 7], the IC50 is 940 nM. The result for `CN1[C@@H]2CC[C@H]1C[C@@H](Oc1ccc(-n3cnc4cc(CCC5(O)CCCC5)sc4c3=O)cc1)C2` [Example 11, 6-[2-(1-Hydroxycyclopentyl)ethyl]-3-[4-((1R,3R,5S)-8-methyl-8-azabicyclo[3.2.1]oct-3-yloxy)phenyl]-3H-thieno[3,2-d]pyrimidin-4-one] reads 1290 nM. The result for `CCC(C)(O)CCc1cc2ncn(-c3ccc(O[C@H]4C[C@H]5CC[C@@H](C4)N5C)c(Cl)c3)c(=O)c2s1` (some centres unmarked) [Example 20] reads 1030 nM; that for `COCCCc1cc2ncn(-c3ccc(O[C@H]4C[C@H]5CC[C@@H](C4)N5C)c(C)c3)c(=O)c2s1` [Example 22], 400 nM; that for `COCCCc1cc2ncn(-c3ccc(O[C@H]4C[C@H]5CC[C@@H](C4)N5C)c(Cl)c3)c(=O)c2s1` [Example 23], 530 nM. In the case of `CCC(O)CCc1cc2ncn(-c3ccc(O[C@H]4C[C@H]5CC[C@@H](C4)N5C)c(C)c3)c(=O)c2s1` (some centres unmarked) [Example 27], the IC50 came to 140 nM. The result for `COc1cc(-n2cnc3cc(C#CC4CC4)sc3c2=O)ccc1OCCN1CCCC1` [Example 42, 6-Cyclopropylethynyl-3-[3-methoxy-4-(2-pyrrolidin-1-ylethoxy)phenyl]-3H-thieno[3,2-d]-pyrimidin-4-one] reads 110 nM.

With `CC(O)C#Cc1cc2ncn(-c3ccc(O[C@H]4C[C@H]5CC[C@@H](C4)N5C)cc3)c(=O)c2s1` (some centres unmarked) [Example 50], the IC50 stood at 240 nM. The result for `COC(C)(C)C#Cc1cc2ncn(-c3ccc(O[C@H]4C[C@H]5CC[C@@H](C4)N5C)cc3)c(=O)c2s1` [Example 56] reads 840 nM; that for `Cc1cc(-n2cnc3cc(C#CC(C)O)sc3c2=O)ccc1O[C@H]1C[C@H]2CC[C@@H](C1)N2C` (some centres unmarked) [Example 57], 120 nM. The value for `COc1cc(-n2cnc3cc(C#CC(C)O)sc3c2=O)ccc1O[C@H]1C[C@H]2CC[C@@H](C1)N2C` (some centres unmarked) [Example 58] was 340 nM; that for `CN1[C@@H]2CC[C@H]1C[C@@H](Oc1ccc(-n3cnc4cc(C#CC5CC5)sc4c3=O)cc1)C2` [Example 62] was 100 nM. The result for `CS(=O)(=O)CCN1[C@@H]2CC[C@H]1C[C@@H](Oc1ccc(-n3cnc4cc(C#CC5CC5)sc4c3=O)cc1)C2` [Example 63] reads 560 nM. Turning to `O=c1c2sc(C#CC3CC3)cc2ncn1-c1ccc(OCCN2CCCC2)c(F)c1` [Example 69], the IC50 came to 200 nM. `CN1[C@@H]2CC[C@H]1CC(Oc1ccc(-n3cnc4cc(N5C[C@H]6CCCN6C5=O)sc4c3=O)cc1)C2` (some centres unmarked) [Example 77]: the IC50 was determined as 9650 nM. Consider `CC(C)N(C)C(=O)c1cc2ncn(-c3ccc(O[C@H]4C[C@H]5CC[C@@H](C4)N5C)cc3)c(=O)c2s1` [Example 82], for which the IC50 was 6880 nM. `CN1[C@@H]2CC[C@H]1C[C@@H](Oc1ccc(-n3cnc4cc(C(=O)N5CCCCC5)sc4c3=O)cc1)C2` [Example 84]: the IC50 is 13000 nM. The value for `CN(C)CCOc1ccc(-n2cnc3cc(COCC4CCC4)sc3c2=O)cc1` [Example 93, 6-Cyclobutylmethoxymethyl-3-[4 (2-dimethylaminoethoxy)phenyl]-3H-thieno[3,2-d]pyrimidin-4-one] was 930 nM; that for `CCCCC(=O)c1cc2ncn(-c3ccc(O[C@H]4C[C@H]5CC[C@@H](C4)N5C)cc3)c(=O)c2s1` [Example 114] was 1860 nM. The value for `CN1[C@@H]2CC[C@H]1C[C@@H](Oc1ccc(-n3cnc4cc(C(O)C5CCCC5)sc4c3=O)cc1)C2` (stereo partly drawn) [Example 121, 6-(Cyclopentylhydroxymethyl)-3-[4-((1S,3R,5R)-8-methyl-8-azabicyclo[3.2.1]oct-3-yloxy)phenyl]-3H-thieno[3,2-d]pyrimidin-4-one] was 750 nM; that for `CCCCC(O)c1cc2ncn(-c3ccc(O[C@H]4C[C@H]5CC[C@@H](C4)N5C)cc3)c(=O)c2s1` (some centres unmarked) [Example 127] was 1000 nM; that for `CN1[C@@H]2CC[C@H]1C[C@@H](Oc1ccc(-n3cnc4cc(C(O)CC(C)(C)C)sc4c3=O)cc1)C2` (some centres unmarked) [Example 135] was 2250 nM. The value for `CN1[C@@H]2CC[C@H]1CC(Oc1ccc(-n3cnc4cc(C5=CCOCC5)sc4c3=O)cc1)C2` (some centres unmarked) [Example 142] was 2590 nM.

As for `CN1[C@@H]2CC[C@H]1C[C@@H](Oc1ccc(-n3cnc4cc(CC(O)C5CCC5)sc4c3=O)cc1)C2` (some centres unmarked) [Example 166], the 50% inhibitory concentration (IC50) was 1090 nM. The value for `CN1[C@@H]2CC[C@H]1C[C@@H](Oc1ccc(-n3cnc4cc(CC(O)c5ccco5)sc4c3=O)cc1)C2` (some centres unmarked) [Example 169] was 290 nM. The value for `CN1[C@@H]2CC[C@H]1C[C@@H](Oc1ccc(-n3cnc4cc(CCc5ccco5)sc4c3=O)cc1)C2` [Example 171, 6-(2-Furan-2-ylethyl)-3-[4-((1S,3R,5R)-8-methyl-8-azabicyclo[3.2.1]oct-3-yloxy)phenyl]-3H-thieno[3,2-d]pyrimidin-4-one] was 210 nM; that for `CCC(O)C#Cc1cc2ncn(-c3ccc(OC4C[C@H]5CC[C@@H](C4)N5C)c(CCC(O)CC)c3)c(=O)c2s1` (some centres unmarked) [Example 178] was 1270 nM; that for `CCc1cc(-n2cnc3cc(C#CC(O)CC)sc3c2=O)ccc1O[C@H]1C[C@H]2CC[C@@H](C1)N2C` (some centres unmarked) [Example 181] was 210 nM. The value for `CCC(O)CCc1cc2ncn(-c3ccc(OC4C[C@H]5CC[C@@H](C4)N5C)c(CCCO)c3)c(=O)c2s1` (some centres unmarked) [Example 190] was 1350 nM.

Values taken from US8853208B2, “Amino alcohol-substituted arylthienopyrimidinones, process for their preparation and their use as medicaments” (Sanofi, priority 2006, dated 2014).
